From US20240390369A1, “METHODS FOR DETERMINING RESPONSIVENESS TO TYK2 INHIBITORS” (Bristol-Myers Squibb Company, priority 2021, published 2024)
“And” between values parts separate entries of the source, which are not always exact repeats. Equal entries are not always repeated.

Tested on: patients with psoriatic arthritis
Assay: Phase 2 trial in psoriatic arthritis: PASI75 response at week 16
Assay type: in vivo, human
Settings: for Number of subjects: 12 mg QD
Procedure: In a double-blind Phase 2 trial, 203 patients with psoriatic arthritis were randomized into three groups: deucravacitinib 6 mg once daily (N=70), deucravacitinib 12 mg once daily (N=67), or placebo (N=66). All subjects had active psoriatic arthritis according to the Classification Criteria for Psoriatic Arthritis (CASPAR); for active disease, these criteria required ≥3 tender joint count, ≥3 swollen joint count, and a C-reactive protein level above 3 mg/L. Other inclusion criteria included the following: presence of at least one plaque psoriasis lesion, and prior treatment failure with a non-biologic disease modifying anti-rheumatic drug, a non-steroidal anti-inflammatory drug, or a steroid. With respect to treatment history, approximately 70% of subjects had not received prior treatment with a biologic and were biologic naïve, while up to 30% of subjects had failed or had been intolerant to one TNF-inhibitor (TNF=Tumor necrosis factor, also known as TNFα). Randomization was stratified by prior TNF-inhibitor use (experienced/naïve) and body weight (<90 kg and ≥90 kg).
Clinical measures included the Psoriasis […] (PASI) score for skin psoriasis, American College of Rheumatology 20 (ACR20) response, Psoriatic Arthritis Disease Activity Score (PASDAS), Health Assessment Questionnaire-Disability Index (HAQ-DI), and Disease Activity Score 28 CRP (DAS28). To evaluate the predictive value of different protein measurements for the clinical response to deucravacitinib, baseline protein concentrations for responders and non-responders, as defined by ACR20 or PASI75 at week 16, were compared for each arm (placebo, 6 mg deucravacitinib once-daily, and 12 mg deucravacitinib once-daily).
In addition, a logistic regression model was fit, to determine whether baseline disease score (dichotomized by the median baseline score, into baseline score high and baseline score low groups) was associated with response status. The model generated an odds ratio for each dosed arm versus placebo, in baseline score high and baseline score low groups.
Boxplots for baseline protein level by response were generated with a horizontal line indicating the median protein level at baseline. For each treatment arm, a two-sample t-test was performed to test whether mean baseline serum protein level was different in responders versus non-responders. A Wilcoxon rank sum test (Mann-Whitney U test) was also performed to evaluate the difference in median serum protein level between responders and non-responders. Further, barplots of ACR20 and PASI75 response rate at week 16 for each treatment arm were generated for all subjects (protein level high and protein level low subjects, dichotomized according to median baseline level). Line plots of ACR20 and PASI75 response rate over time for each treatment arm were generated for protein level high and protein level low groups. Logistic regression models were also fit to evaluate associations between baseline protein levels and clinical outcome.
For certain analyses described herein, patients were dichotomized by median values (e.g., of the proteins listed above or other measures) into “high” and “low” groups, such that the high group had values above the median and the low group had values less than or equal to the median.
In addition, logistic regression models were fit for response measures ACR20 and PASI75, to generate the odds ratio of each of the deucravacitinib treatment arms versus placebo, in BD2-high and BD2-low groups. The following logistic regression models were used: • For ACR20 response status: ACR20 (Y/N)=treatment arm+BD2 group+treatment arm*BD2 group+TNF-inhibitor use+baseline weight (continuous). • For PASI75 response status: PASI75 (Y/N)=treatment arm+BD2 group+treatment arm*BD2 group+TNF-inhibitor use+baseline weight (continuous). […]

`[2H]C([2H])([2H])NC(=O)c1nnc(NC(=O)C2CC2)cc1Nc1cccc(-c2ncn(C)n2)c1OC` [deucravacitinib, 6-(cyclopropanecarboxamido)-4-((2-methoxy-3-(1-methyl-1H-1,2,4-triazol-3-yl)phenyl)amino)-N-(methyl-d3)pyridazine-3-carboxamide] showed a Number of subjects (PASI75 responder at week 16, above median baseline IL-19 level) of 20, a Number of subjects (PASI75 responder at week 16, below baseline PASI median 6.6) of 11 and a Number of subjects (PASI75 responder at week 16, below median baseline BD2 level) of 19. The Number of subjects (PASI75 responder at week 16, below median baseline IL-17A level) was 12, the Number of subjects (PASI75 responder at week 16, below median baseline IL-19 level) was 10 and the Number of subjects (PASI75 responder, BD2-high-PASI-high) was 13. For the same compound, the Number of subjects (PASI75 responder, BD2-high-PASI-low) was 7, the Number of subjects (PASI75 responder, BD2-low-PASI-high) was 6 and the Number of subjects (PASI75 responder, BD2-low-PASI-low) was 4. The Number of subjects (PASI75 responder, IL-17A-high-PASI-high) was 10, the Number of subjects (PASI75 responder, IL-17A-high-PASI-low) was 8 and the Number of subjects (PASI75 responder, IL-17A-low-PASI-high) was 9. It also gave a Number of subjects (PASI75 responder, IL-17A-low-PASI-low) of 3, a Number of subjects (PASI75 responder, IL-19-high-PASI-high) of 12 and a Number of subjects (PASI75 responder, IL-19-high-PASI-low) of 8. For the same compound, the Number of subjects (PASI75 responder, IL-19-low-PASI-high) was 7, the Number of subjects (PASI75 responder, IL-19-low-PASI-low) was 3 and the “Odds Ratio, PASI75 response status” value (All patients, 6 mg QD vs placebo, not adjusted for baseline disease activity) was 2.88. The “Odds Ratio for PASI75 response” value (All patients, 6 mg QD vs placebo, week 16) was 2.88, the “Odds Ratio, PASI75 response status” value (All patients, 6 mg QD vs placebo, week 16, adjusted for baseline PASI score) was 3.052 and 3.05 and the “Odds Ratio, PASI75 response status” value (All patients, 12 mg QD vs placebo, not adjusted for baseline disease activity) was 5.781 and 5.78. For the same compound, the “Odds Ratio for PASI75 response” value (All patients, 12 mg QD vs placebo, week 16) was 5.781, the “Odds Ratio, PASI75 response status” value (All patients, 12 mg QD vs placebo, week 16, adjusted for baseline PASI score) was 6.494 and 6.49 and the “Odds Ratio for PASI75 response” value (All patients, deucravacitinib treatment arms combined vs placebo, week 16) was 3.998. For the same compound, the “Odds Ratio, PASI75 response status” value (All patients, treatment arms combined vs placebo) was 3.998, the “PASI75 response rate at week 16” value (BD2-high group, 6 mg QD and 12 mg QD vs placebo arm (FIG. 7)) was “higher in both 6 mg QD and 12 mg QD treatment arms compared to the placebo arm” and the “Odds Ratio for PASI75 response” value (BD2-high-PASI-high, 6 mg QD vs placebo, week 16) was 29.67. For the same compound, the “Odds Ratio for PASI75 response” value (BD2-high-PASI-high, 12 mg QD vs placebo, week 16) was 43.084, the “Odds Ratio for PASI75 response” value (BD2-high-PASI-low, 6 mg QD vs placebo, week 16) was 2.331 and the “Odds Ratio for PASI75 response” value (BD2-high-PASI-low, 12 mg QD vs placebo, week 16) was 10.995. For the same compound, the “Odds Ratio for PASI75 response” value (BD2-low-PASI-high, 6 mg QD vs placebo, week 16) was 0.825, the “Odds Ratio for PASI75 response” value (BD2-low-PASI-high, 12 mg QD vs placebo, week 16) was 7.787 and the “Odds Ratio for PASI75 response” value (BD2-low-PASI-low, 6 mg QD vs placebo, week 16) was 1.093. For the same compound, the “Odds Ratio for PASI75 response” value (BD2-low-PASI-low, 12 mg QD vs placebo, week 16) was 0.967, the “Odds Ratio for PASI75 response” value (BD2 high (baseline above median 9,265 ng/L), 6 mg QD vs placebo, week 16) was 10.905 and the “Odds Ratio for PASI75 response” value (BD2 high (baseline above median 9,265 ng/L), 12 mg QD vs placebo, week 16) was 24.118. For the same compound, the “Odds Ratio for PASI75 response” value (BD2 high, treatment arms combined vs placebo, week 16) was 15.415, the “Odds Ratio for PASI75 response” value (BD2 low, 6 mg QD vs placebo, week 16) was 0.938 and the “Odds Ratio for PASI75 response” value (BD2 low, 12 mg QD vs placebo, week 16) was 1.695. The “Odds Ratio for PASI75 response” value (BD2 low, treatment arms combined vs placebo, week 16) was 1.274, the “Odds Ratio for PASI75 response” value (Baseline PASI high (above median 6.6), 6 mg QD vs placebo, week 16) was 6.94 and 6.937 and the “Odds Ratio for PASI75 response” value (Baseline PASI high (above median 6.6), 12 mg QD vs placebo, week 16) was 15.75. For the same compound, the “Odds Ratio for PASI75 response” value (Baseline PASI low (at or below median 6.6), 6 mg QD vs placebo, week 16) was 1.26 and 1.258, the “Odds Ratio for PASI75 response” value (Baseline PASI low (at or below median 6.6), 12 mg QD vs placebo, week 16) was 2.454 and the “Odds Ratio, PASI75 response status” value (CRP high, 6 mg QD vs placebo) was 3.54. The “Odds Ratio, PASI75 response status” value (CRP high, 12 mg QD vs placebo) was 9.78, the “Odds Ratio, PASI75 response status” value (CRP high, treatment arms combined vs placebo) was 5.405 and the “Odds Ratio for PASI75 response” value (CRP level above median and baseline PASI score above median, 6 mg QD vs placebo, week 16) was 18.381. For the same compound, the “Odds Ratio, PASI75 response status” value (CRP low, 6 mg QD vs placebo) was 2.12, the “Odds Ratio, PASI75 response status” value (CRP low, 12 mg QD vs placebo) was 3.72 and the “Odds Ratio, PASI75 response status” value (CRP low, treatment arms combined vs placebo) was 2.840. For the same compound, the “Odds Ratio, PASI75 response status” value (CRP-high-PASI-high, 6 mg QD vs placebo) was 18.381.
